# Laboratory results from patent US20260083687A1, “COMPOUNDS FOR REDUCING LACTATION AND IMPROVING HEALTH” (AHV International B.V., priority 2022, published 2026).
# Several values for one entry are separate records, joined by “and”; a condition that tells them apart may be missing. Equal values may be shown once.
# System: cows (Holstein Friesians)
# Assay: Treatment with DPD analogs (organosulfur compounds) and milk yield (Example 8)
# Type: in vivo, cow
# Settings: for % reduction after 24 h average (milk yield): 24 h after one oral gel capsule; for % reduction after 24 h average (milk yield) / % reduction after 48 h average (milk yield) / % reduction after 72 h average (milk yield) / % reduction after 96 h average (milk yield) / average reduction after 24, 48 and 72 h (%) (milk yield) / Average reduction after 24 and 48 h (%) (milk yield): dose equimolar to 80 ml di-n-propyl disulfide; for % reduction after 24 h average (milk yield) / % reduction after 48 h average (milk yield) / % reduction after 72 h average (milk yield) / % reduction after 96 h average (milk yield): negative value = increase in yield; for % reduction after 48 h average (milk yield): 48 h after one oral gel capsule; for % reduction after 72 h average (milk yield): 72 h after one oral gel capsule; for % reduction after 96 h average (milk yield): 96 h after one oral gel capsule; for average reduction after 24, 48 and 72 h (%) (milk yield): average of 24, 48 and 72 h after one oral gel capsule; for Average reduction after 24 and 48 h (%) (milk yield): average of 24 and 48 h after one oral gel capsule; for Milk yield (kg) Last milking: before administration, single oral gel capsule dose per cow (ml unless g): diethyl disulfide 63, di-n-propyl disulfide 80, diisopropyl disulfide 160, di-n-butyl disulfide 100, dibenzyl disulfide 102, diethyl sulfide 55, di-n-propyl sulfide 72, diisopropyl sulfide 74, di-n-butyl sulfide 90, dibenzyl sulfide 96 g, diphenyl sulfide 85, di-n-propyl trisulfide 98, di-n-propyl sulfone 6; for Milk yield (kg) Last milking / Average reduction after 24 and 48 h (%) / Milk yield (kg) After 24 h / Milk yield (kg) After 48 h / Milk yield (kg) After 72 h / Milk yield (kg) After 96 h / average reduction after 24, 48 and 72 h (%) / % reduction after 24 h / % reduction after 48 h / % reduction after 72 h / % reduction after 96 h: individual cows; for Average reduction after 24 and 48 h (%) / Milk yield (kg) After 24 h / Milk yield (kg) After 48 h / Milk yield (kg) After 72 h / Milk yield (kg) After 96 h / average reduction after 24, 48 and 72 h (%) / % reduction after 24 h / % reduction after 48 h / % reduction after 72 h / % reduction after 96 h: dose per compound as listed in E284; for % reduction after 24 h / % reduction after 48 h / % reduction after 72 h / % reduction after 96 h: vs milk yield before treatment
# Protocol: Study design. 36 cows (Holstein Friesians) from 2 farms were used. The feed of the cows was composed of TMR, including corn and grass silage, supplemented with soya and minerals. […] The cows were milked in a milk robot. […] The cows were milked twice a day. The cows were housed in free stables. […] Placebo treatment corresponded to administration of two gel capsules containing 180 ml water.
# For this study dosages synthetic compounds (>96% purity) as indicated in table 17 were administered to cows. The objective of this study was to compare the activity of a corresponding dose of the compounds expressed in mol, based on the number of moles that is present in 80 ml di-n-propyl disulfide at 20° C. The number of moles was converted to ml or grams of the tested compounds. For this purpose, the molecular weight and specific density were used in the calculations. The compounds were formulated in the gel capsules as indicated in the previous examples.
# Before the various dosages were administered, the milk yields were monitored for at least 5 days.
Molecule,% reduction after 24 h average (milk yield),% reduction after 48 h average (milk yield),% reduction after 72 h average (milk yield),% reduction after 96 h average (milk yield),"average reduction after 24, 48 and 72 h (%) (milk yield)",Average reduction after 24 and 48 h (%) (milk yield),Milk yield (kg) Last milking,Average reduction after 24 and 48 h (%),Milk yield (kg) After 24 h,Milk yield (kg) After 48 h,Milk yield (kg) After 72 h,Milk yield (kg) After 96 h,"average reduction after 24, 48 and 72 h (%)",% reduction after 24 h,% reduction after 48 h,% reduction after 72 h,% reduction after 96 h
di-isopropyl thiosulfonate [Diisopropyl thiosulfonate],28%,26%,9%,0%,21%,27%,28.9 kg,27%,20.8 kg,21.4 kg,26.3 kg,28.8 kg,21%,28%,26%,9%,0%
"[O-][S+](Cc1ccccc1)SCc1ccccc1 (centres unmarked) [Dibenzyl thiosulfinate, di-benzyl thiosulfinate]",38%,37%,27.5%,5%,34.2%,37.5%,30.3 kg and 27.9 kg,32.5% and 42.5%,20.4 kg and 15.6 kg,20.7 kg and 15.9 kg,24.3 kg and 17.9 kg,28.1 kg and 27.3 kg,28.5% and 39.7%,33% and 43%,32% and 42%,20% and 35%,7% and 3%
"CCCS(=O)(=O)CCC [Di-n-propyl sulfone, di-n-propyl sulfone]",,,,,,,,,13.7 kg,13.8 kg,15.2 kg,18.7 kg,,,,,
"CC(C)SSC(C)C [Diisopropyl disulfide, di-isopropyl disulfide]",,,,,,,,,13.6 kg,15.4 kg,18.5 kg,19.5 kg,,,,,
"O=S(=O)(Cc1ccccc1)SCc1ccccc1 [Dibenzyl thiosulfonate, di-benzyl thiosulfonate]",48%,48%,28%,15%,41.3%,48%,27.8 kg,48%,14.5 kg,14.6 kg,19.9 kg,23.5 kg,41.3%,48%,48%,28%,15%
